The target of test [1] is T1, NEK6 (Homo sapiens, UniProt Q9HC98).
T1 construct: purchased Carna 05-130
Briefly: LANCE-Ultra NEK6 kinase assay. The format is biochemical. Particulars: 100 µM ATP. On the procedure:
The twenty-five compounds resulting from virtual screening were firstly tested for the ability to inhibit the enzymatic activity of NEK6 at a single concentration of 30 µM, using LANCE technology. Quercetin, able to inhibit a broad panel of kinase, was used as positive control of inhibition[12],[30]. This initial screening allowed the identification of two compounds determining >70% NEK6 inhibition at 30 µM, i.e. compound 8 (6-hydroxy-4-methyl-2-oxo-5-[(5-phenyl (2-furyl)) methylene] pyridine-3-carbonitrile), and 21 (6-amino-2-phenyl-5,7,9-triazatetracyclo[8.7.0.0^3,^8 0^11,^16]heptadeca-1(10),3(8),6,11,13,15 hexaene-4,17-dione) (Fig. 4). […] The possible binding mode of compound 8 in the ATP-binding site of NEK6 as well as nonbonded interactions across the complex interface are shown in Fig. 6. Compound 8 may use its phenyl ring and furyl ring to form hydrophobic Pi-alkyl interactions with Ala72 (strand β3), Ala125 (hinge region) and Val59 (strand β2) of the ATP binding site (Fig. 6B). […] This is particulary relevant when considering that C–H···O hydrogen bonds play an important role in the ligand-binding process[33]–[35].
Compounds (i.e. 1 to 25) (Molport, Riga, LV-1011, Latvia) were dissolved in DMSO 100% as 10 mM stock and stored at −20 C. Activity of the compounds as NEK6 inhibitors was tested using LANCE NEK6 Ultra Kinase Assays protocol (U-TRF #25 technical note, PerkinElmer, Monza, MB). Compounds were first tested at 30 µM and incubated with 4 nM NEK6 (Carna, Chuo-ku, Kobe, Japan, # 05-130), 50 nM ULight-p70 S6K Peptide (PerkinElmer # TRF0126) and 100 μM ATP (Sigma-Aldrich, Saint Louis, U.S.A, # A2383) at room temperature. Kinase reactions were terminated after 90 minutes by the addition of EDTA and the signal was read with the Enspire plate reader (PerkinElmer) in TR-FRET mode (excitation at 320 nm and emission at 665 nm) after 60 minutes. Inhibition of NEK6 activity was calculated as percentage with respect to the control sample (100% of activity). Quercetin was used as positive control (Molport). […] For each compound the dose inhibiting 50% of NEK6 activity (IC50) was calculated using the GraphPad Prism 5.0 Software (San Diego, CA, USA).
In general terms: Time-resolved FRET reads energy transfer from a long-lived donor to a nearby acceptor.

The target of test [2] is T1, NEK6. Briefly: Off-chip Mobility Shift Assay (MSA), NEK6. The test is classed as biochemical. Particulars: CARNA Biosciences Study CBS170097, ATP 75 µM. On the procedure: Therefore, we decided to evaluate the selectivity of compound 8 against a panel of NEK kinases at 10 µM, using the technique of Off-chip Mobility shift assay. This concentration was chosen according to the guidelines proposed by Knight and Shokat, since the probability of off-target effects increases dramatically above 10 µM[36]. Furthermore, ATP concentration was set to approximate the Km,ATP for each kinase, so that the resulting selectivity profile directly reflects the intrinsic affinities of the inhibitor[37]. […] A major consequence of this substitution may be the redistribution of surface charges at the flexible activation loop resulting in an altered electrostatic potential and ability of NEK6 kinase to interact with other molecules.
The inhibitory activity of compounds 8 and 21 on NEK6 was also verified with MSA technique (Off-chip Mobility shift assay) (CARNA Biosciences Study ID: CBS170097, CARNA Biosciences, Kobe). […] PKR Inhibitor was used as positive control. For profiling study against NEK kinases (i.e. NEK1, NEK2, NEK6, NEK7, NEK9) (CARNA Biosciences Study ID: CBS170098), 8 was tested at 10 μM and ATP concentration approximating Km for each kinase. Assay condition for kinases are available on “Kinase profiling book” downloading by www.carnabio.com (https://www.carnabio.com/output/pdf/ProfilingProfilingBook_en.pdf).

The next test deals with PEO1 (ovary). Briefly: Cell-based cytotoxicity assay (ATPlite), PEO1. Set-up: species or system human. Particulars: 72 h. The source says:
The following human carcinoma cell lines were used for the study: MDA-MB-231 and MCF-7 (breast cancer; ATCC, Sesto San Giovanni, MI), PEO1 and COV318 (ovarian cancer; ECACC, Salisbury, UK and ATCC), HCT-15 and SW948 (colon cancer; Public Health England, Salisbury, UK and ATCC), NCI-H1975 and NCI-H1299, (lung cancer; ATCC). Cells were routinely tested free of mycoplasma (MycoAlert mycoplasma detection kit, LONZA, Rockland, ME, USA) and validated by STR (Short Tandem Repeat) DNA profiling (BMR Genomics srl, PD). Cells were grown following supplier indication, in a fully humidified atmosphere of 5% CO2/95% air. All the reagents were purchased from Sigma-Aldrich (St. Louis, MO), if not otherwise specified.

Results on 3 molecules are retold here after article PMC6207720, “Identification and antitumor activity of a novel inhibitor of the NIMA-related kinase NEK6” (Scientific Reports, 2018).

Like-named read-outs stand apart in the source and are kept apart here. Some results are limits rather than exact numbers.

T1 sequence (Q9HC98 whole entry): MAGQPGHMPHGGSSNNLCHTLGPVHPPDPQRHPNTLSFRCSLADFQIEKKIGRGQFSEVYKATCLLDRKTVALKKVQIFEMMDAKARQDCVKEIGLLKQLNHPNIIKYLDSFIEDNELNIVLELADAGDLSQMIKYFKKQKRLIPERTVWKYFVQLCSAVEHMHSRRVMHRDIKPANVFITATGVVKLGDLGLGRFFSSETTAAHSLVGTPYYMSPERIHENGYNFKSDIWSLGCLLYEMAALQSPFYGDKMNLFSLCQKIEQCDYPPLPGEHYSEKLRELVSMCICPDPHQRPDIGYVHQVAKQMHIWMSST

The term IC50 denotes the midpoint of a concentration-inhibition curve. By inhibition is commonly meant the drop in the measured response relative to a control, in per cent. A low value points to little suppression. Consider `Nc1nc2c(c(=O)[nH]1)C(c1ccccc1)C1=C(N2)c2ccccc2C1=O` (centres unmarked) [Compound 21, 6-amino-2-phenyl-5,7,9-triazatetracyclo[8.7.0.0^3,^8 0^11,^16]heptadeca-1(10),3(8),6,11,13,15 hexaene-4,17-dione], for which the IC50 was determined as 2.6 ± 0.05 µM against NEK6 [1] (LANCE-Ultra, mean ± SEM of 4 independent experiments) and 49.8 µM on NEK6 [2]. On NEK6 [1] (single concentration 30 µM, LANCE), the inhibition at 30 µM is over 70%.

Take `CC(=O)O[C@H]1C(=O)[C@@]2(C)[C@H]([C@H](OC(=O)c3ccccc3)[C@]3(O)C[C@H](OC(=O)[C@H](O)[C@@H](NC(=O)c4ccccc4)c4ccccc4)C(C)=C1C3(C)C)[C@]1(OC(C)=O)CO[C@@H]1C[C@@H]2O` [paclitaxel]: in the test with PEO1 (ovary) (Homo sapiens, PEO1, paclitaxel alone, read-out: IC50 paclitaxel), the IC50 turned out to be 0.007 ± 1e-06 µM.

With `N.N.[Cl][Pt][Cl]` [cisplatin], the IC50 in the test with PEO1 (ovary) (PEO1, cisplatin alone, read-out: Cisplatin IC50 (mean ± SEM)) came to 7.9 ± 0.65 µM.
